Species: Rattus norvegicus
Experiment: DrugMatrix - Regimen: Daily Repeat
Assay type: toxicity, organism-based, Sprague-Dawley
Parameters: regimen Daily Repeat, gender Male, age 6-8 weeks
Settings: in vivo, sc, route subcutaneous, […]; for ABSOLUTE BASOPHIL / ABSOLUTE EOSINOPHIL / ABSOLUTE LYMPHOCYTE / ABSOLUTE MONOCYTE / ABSOLUTE SEGMENTED NEUTROPHIL / BASOPHIL / EOSINOPHIL / ERYTHROCYTE COUNT / HEMATOCRIT / HEMOGLOBIN / LEUKOCYTE COUNT / LYMPHOCYTE / MEAN CORPUSCULAR HEMOGLOBIN / MEAN CORPUSCULAR HEMOGLOBIN CONCENTRATION / MEAN CORPUSCULAR VOLUME / MONOCYTE / NEUTROPHIL / NUCLEATED RED BLOOD CELLS / PLATELET COUNT: tissue Blood; for ALANINE AMINOTRANSFERASE / ALBUMIN / ALKALINE PHOSPHATASE / ASPARTATE AMINOTRANSFERASE / BLOOD UREA NITROGEN / CARBON DIOXIDE / CHLORIDE / CHOLESTEROL / CREATINE PHOSPHOKINASE / CREATININE / GLUCOSE / LACTATE DEHYDROGENASE / LIPASE / PHOSPHORUS / POTASSIUM / SODIUM / TOTAL BILIRUBIN / TOTAL PROTEIN / URIC ACID: tissue Plasma
[1] = 27 mg/kg, 120 h, dose level Low, time 5 day
[2] = 1200 mg/kg, 72 h, dose level High, time 3 day
[3] = 1200 mg/kg, 120 h, dose level High, time 5 day

Structure (SMILES): Clc1ccc(CSC(Cn2ccnc2)c2ccc(Cl)cc2Cl)cc1 (centres undefined) [SULCONAZOLE]
- ABSOLUTE BASOPHIL [1]: 0 CELLS/uL
- ABSOLUTE EOSINOPHIL [1]: 176 CELLS/uL
- ABSOLUTE LYMPHOCYTE [1]: 10589.67 CELLS/uL
- ABSOLUTE MONOCYTE [1]: 178.33 CELLS/uL
- ABSOLUTE SEGMENTED NEUTROPHIL [1]: 2489.33 CELLS/uL
- BASOPHIL [1]: 0%
- EOSINOPHIL [1]: 1.33%
- ERYTHROCYTE COUNT [1]: 5.26 x10E6/uL
- HEMATOCRIT [1]: 33.93%
- HEMOGLOBIN [1]: 13 G/DL
- LEUKOCYTE COUNT [1]: 13.43 x10E3/uL
- LYMPHOCYTE [1]: 78.33%
- MEAN CORPUSCULAR HEMOGLOBIN [1]: 24.73 pg
- MEAN CORPUSCULAR HEMOGLOBIN CONCENTRATION [1]: 38.3 G/DL
- MEAN CORPUSCULAR VOLUME [1]: 64.6 fL
- MONOCYTE [1]: 1.33%
- NEUTROPHIL [1]: 19%
- NUCLEATED RED BLOOD CELLS [1]: 0 /100WBC
- PLATELET COUNT [1]: 1332 x10E3/uL
- ALANINE AMINOTRANSFERASE [1]: 56 u/L
- ALBUMIN [1]: 3.9 G/DL
- ALKALINE PHOSPHATASE [1]: 279.67 u/L
- ASPARTATE AMINOTRANSFERASE [1]: 81.67 u/L
- BLOOD UREA NITROGEN [1]: 17 mg/dL
- CARBON DIOXIDE [1]: 25.33 mmol/L
- CHLORIDE [1]: 105.67 MEQ/L
- CHOLESTEROL [1]: 64.67 mg/dL
- CREATINE PHOSPHOKINASE [1]: 435.33 u/L
- CREATININE [1]: 0.16 mg/dL
- GLUCOSE [1]: 162.33 mg/dL
- LACTATE DEHYDROGENASE [1]: 119.67 u/L
- LIPASE [1]: 7.33 u/L
- PHOSPHORUS [1]: 14.4 mg/dL
- POTASSIUM [1]: 6.46 MEQ/L
- SODIUM [1]: 145.43 MEQ/L
- TOTAL BILIRUBIN [1]: 0.17 mg/dL
- TOTAL PROTEIN [1]: 5.9 G/DL
- URIC ACID [1]: 1.63 mg/dL
- ABSOLUTE BASOPHIL [2]: 0 CELLS/uL
- ABSOLUTE EOSINOPHIL [2]: 83.33 CELLS/uL
- ABSOLUTE LYMPHOCYTE [2]: 7163.33 CELLS/uL
- ABSOLUTE MONOCYTE [2]: 161.33 CELLS/uL
- ABSOLUTE SEGMENTED NEUTROPHIL [2]: 2925.33 CELLS/uL
- BASOPHIL [2]: 0%
- EOSINOPHIL [2]: 1%
- ERYTHROCYTE COUNT [2]: 5.45 x10E6/uL
- HEMATOCRIT [2]: 33.7%
- HEMOGLOBIN [2]: 12.87 G/DL
- LEUKOCYTE COUNT [2]: 10.33 x10E3/uL
- LYMPHOCYTE [2]: 68.33%
- MEAN CORPUSCULAR HEMOGLOBIN [2]: 23.6 pg
- MEAN CORPUSCULAR HEMOGLOBIN CONCENTRATION [2]: 38.2 G/DL
- MEAN CORPUSCULAR VOLUME [2]: 61.83 fL
- MONOCYTE [2]: 1.67%
- NEUTROPHIL [2]: 29%
- NUCLEATED RED BLOOD CELLS [2]: 0 /100WBC
- PLATELET COUNT [2]: 1327 x10E3/uL
- ALANINE AMINOTRANSFERASE [2]: 43 u/L
- ALBUMIN [2]: 3.9 G/DL
- ALKALINE PHOSPHATASE [2]: 294.67 u/L
- ASPARTATE AMINOTRANSFERASE [2]: 79.33 u/L
- BLOOD UREA NITROGEN [2]: 14 mg/dL
- CARBON DIOXIDE [2]: 30 mmol/L
- CHLORIDE [2]: 109 MEQ/L
- CHOLESTEROL [2]: 69.33 mg/dL
- CREATINE PHOSPHOKINASE [2]: 308.33 u/L
- CREATININE [2]: 0.2 mg/dL
- GLUCOSE [2]: 133.67 mg/dL
- LACTATE DEHYDROGENASE [2]: 112.67 u/L
- LIPASE [2]: 8 u/L
- PHOSPHORUS [2]: 10.93 mg/dL
- POTASSIUM [2]: 6.11 MEQ/L
- SODIUM [2]: 149.45 MEQ/L
- TOTAL BILIRUBIN [2]: 0.13 mg/dL
- TOTAL PROTEIN [2]: 6.27 G/DL
- URIC ACID [2]: 0.83 mg/dL
- ABSOLUTE BASOPHIL [3]: 0 CELLS/uL
- ABSOLUTE EOSINOPHIL [3]: 276.67 CELLS/uL
- ABSOLUTE LYMPHOCYTE [3]: 12157 CELLS/uL
- ABSOLUTE MONOCYTE [3]: 40.67 CELLS/uL
- ABSOLUTE SEGMENTED NEUTROPHIL [3]: 4359 CELLS/uL
- BASOPHIL [3]: 0%
- EOSINOPHIL [3]: 1.67%
- ERYTHROCYTE COUNT [3]: 5.75 x10E6/uL
- HEMATOCRIT [3]: 35.17%
- HEMOGLOBIN [3]: 13.07 G/DL
- LEUKOCYTE COUNT [3]: 16.83 x10E3/uL
- LYMPHOCYTE [3]: 72.33%
- MEAN CORPUSCULAR HEMOGLOBIN [3]: 22.73 pg
- MEAN CORPUSCULAR HEMOGLOBIN CONCENTRATION [3]: 37.2 G/DL
- MEAN CORPUSCULAR VOLUME [3]: 61.23 fL
- MONOCYTE [3]: 0.33%
- NEUTROPHIL [3]: 25.67%
- NUCLEATED RED BLOOD CELLS [3]: 0 /100WBC
- PLATELET COUNT [3]: 1614.33 x10E3/uL
- ALANINE AMINOTRANSFERASE [3]: 39.67 u/L
- ALBUMIN [3]: 3.47 G/DL
- ALKALINE PHOSPHATASE [3]: 268.67 u/L
- ASPARTATE AMINOTRANSFERASE [3]: 76.33 u/L
- BLOOD UREA NITROGEN [3]: 16.67 mg/dL
- CARBON DIOXIDE [3]: 25 mmol/L
- CHLORIDE [3]: 104.33 MEQ/L
- CHOLESTEROL [3]: 59.67 mg/dL
- CREATINE PHOSPHOKINASE [3]: 355 u/L
- CREATININE [3]: 0.23 mg/dL
- GLUCOSE [3]: 160.67 mg/dL
- LACTATE DEHYDROGENASE [3]: 169.33 u/L
- LIPASE [3]: 7.33 u/L
- PHOSPHORUS [3]: 12.67 mg/dL
- POTASSIUM [3]: 6.48 MEQ/L
- SODIUM [3]: 144.93 MEQ/L
- TOTAL BILIRUBIN [3]: 0.13 mg/dL
- TOTAL PROTEIN [3]: 6.1 G/DL
- URIC ACID [3]: 2.87 mg/dL
